US7767455B2, “Nucleus export reporter system” (priority 2000, dated 2010)

Key:
huGFP reporter = experiment: Expression of the Rev-independent huGFP reporter in transfected H1299 cells (Western blot); assay type: cell-based, human; conditions: 5 nM LMB in the medium 24 h before harvesting, FIG. 5B
[1] = tested on: Rev-mediated nuclear export; experiment: Inhibition of Rev-dependent GFP expression of the UTR-hivGFP-RRE reporter in transfected H1299 cells (Western blot); assay type: cell-based, human; conditions: 5 nM LMB in the medium 24 h before harvesting, Rev cotransfected, FIG. 5B

## CCC(=C/[C@H](C)C/C=C/C(C)=C/[C@@H](C)C(=O)[C@@H](C)[C@H](O)[C@@H](C)C/C(C)=C/C(=O)O)/C=C/[C@@H]1OC(=O)C=C[C@@H]1C [LMB, Leptomycin B]
huGFP reporter
  expression of the huGFP reporter: not the expression of the huGFP reporter
[1]
  expression of the Rev-dependent GFP reporter: inhibit
